Data as given in ChEMBL document CHEMBL1667746, “Synthesis, antimicrobial activity and structure-activity relationship study of N,N-dibenzyl-cyclohexane-1,2-diamine derivatives” (Eur J Med Chem, 2011).
Converted amounts (≈) assume the structure as drawn. The source made the active and inactive calls. The calls are words filed in the database; no cut-off is given here.

Legend:
Escherichia coli = test: Antibacterial activity against Escherichia coli after 24 hrs micro dilution assay; type: functional
Pseudomonas aeruginosa = test: Antibacterial activity against Pseudomonas aeruginosa after 24 hrs micro dilution assay; type: functional
Staphylococcus aureus = test: Antibacterial activity against Staphylococcus aureus after 24 hrs micro dilution assay; type: functional
[1] = test system: Staphylococcus epidermidis; test: Antibacterial activity against Staphylococcus epidermidis after 24 hrs micro dilution assay; type: functional
[2] = Toxicity in human RBC assessed as hemolysis at 1024 ug/ml; type: cell-based, Erythrocyte; conditions: for Activity: erythrocyte; for hemolysis at 1024 ug/ml: red blood cells, read-out: Activity
Candida albicans = test: Antifungal activity against Candida albicans MTCC 3017 after 24 hrs micro dilution assay; type: functional
Nakaseomyces glabratus = test: Antifungal activity against Candida glabrata MTCC 3019 after 24 hrs micro dilution assay; type: functional
Geotrichum candidum = test: Antifungal activity against Geotrichum candidum NCIM 980 after 24 hrs micro dilution assay; type: functional
[3] = Escherichia coli, 24 h, read-out: MIC
[4] = Pseudomonas aeruginosa, 24 h, read-out: MIC
[5] = Staphylococcus aureus, 24 h, read-out: MIC
[6] = Staphylococcus epidermidis, 24 h, read-out: MIC

Row | MIC (Escherichia coli) | MIC (Pseudomonas aeruginosa) | MIC (Staphylococcus aureus) | MIC [1] | MIC (Escherichia coli; [3]) [µg/mL] | MIC (Pseudomonas aeruginosa; [4]) [µg/mL] | MIC (Staphylococcus aureus; [5]) [µg/mL] | MIC [1, 6] [µg/mL] | MIC (Candida albicans; MTCC 3017, 24 h) [µg/mL] | MIC (Nakaseomyces glabratus; MTCC 3019, 24 h) [µg/mL] | MIC (Geotrichum candidum; NCIM 980, 24 h) [µg/mL] | MIC (Candida albicans) | MIC (Nakaseomyces glabratus) | MIC (Geotrichum candidum) | SMILES | Activity [2] | hemolysis at 1024 ug/ml [2] [%]
1 | inactive | inactive | inactive | inactive | – | – | – | – | – | – | – | – | – | – | Cl.FC(F)(F)c1ccc(CNC2CCCCC2NCc2ccc(C(F)(F)F)cc2C(F)(F)F)c(C(F)(F)F)c1 (stereo not given) | Non-toxic | –
2 | – | – | – | – | 0.25 | 0.032 | 0.016 | 0.032 | 0.125 | 0.125 | 0.032 | – | – | – | Brc1ccc(CNC2CCCCC2NCc2ccc(Br)cc2)cc1.Cl (stereo not given) | Non-toxic | –
3 | – | 0.008 µg/mL | – | – | 0.032 | – | 0.008 | 0.032 | 0.125 | 0.065 | 0.065 | – | – | – | Brc1cccc(CN[C@H]2CCCC[C@@H]2NCc2cccc(Br)c2)c1.Cl | Non-toxic | –
4 | – | – | – | – | 0.125 | 0.065 | 0.032 | 0.25 | – | – | 0.25 | inactive | inactive | – | Cc1cccc(CNC2CCCCC2NCc2cccc(C)c2)c1.Cl (stereo not given) | – | 4.78
5 | – | – | – | – | 0.008 | 0.008 | 0.008 | 0.008 | 0.125 | 0.125 | 0.032 | – | – | – | Cl.Clc1ccc(CNC2CCCCC2NCc2ccc(Cl)cc2)cc1 (stereo not given) | Non-toxic | –
6 | – | – | – | – | 0.008 | 0.0005 | 0.008 | 0.008 | 0.008 | 0.008 | 0.008 | – | – | – | CCCCc1ccc(CNC2CCCCC2NCc2ccc(CCCC)cc2)cc1.Cl (stereo not given) | – | 7.68
7 | – | – | – | – | 0.125 | 0.125 | 0.25 | 0.25 | – | – | 0.25 | inactive | inactive | – | Cc1ccccc1CNC1CCCCC1NCc1ccccc1C.Cl (stereo not given) | Non-toxic | –
8 | inactive | inactive | inactive | inactive | – | – | – | – | – | – | – | – | – | – | Cl.FC(F)(F)c1ccc(C(F)(F)F)c(CNC2CCCCC2NCc2cc(C(F)(F)F)ccc2C(F)(F)F)c1 (stereo not given) | Non-toxic | –
9 | inactive | inactive | inactive | inactive | – | – | – | – | – | – | – | – | – | – | Cl.O=[N+]([O-])c1ccccc1CNC1CCCCC1NCc1ccccc1[N+](=O)[O-] (stereo not given) | Non-toxic | –
10 | – | – | – | – | 0.5 | 0.25 | 0.5 | 1 | – | – | – | – | – | – | Cl.O=[N+]([O-])c1cccc(CNC2CCCCC2NCc2cccc([N+](=O)[O-])c2)c1 (stereo not given) | Non-toxic | –
11 | 0.016 µg/mL | 0.032 µg/mL | 0.008 µg/mL | 0.032 µg/mL | – | – | – | – | – | – | – | – | – | – | Brc1cccc(CN[C@H]2CCCC[C@@H]2NCc2cccc(Br)c2)c1.Cl (racemic) | – | –
12 | – | – | – | – | 0.065 | 0.25 | 0.016 | 0.032 | 0.125 | 0.25 | 0.125 | – | – | – | Cl.FC(F)(F)c1cccc(CNC2CCCCC2NCc2cccc(C(F)(F)F)c2)c1 (stereo not given) | Non-toxic | –
13 | – | – | – | – | 0.008 | 0.0006 | 0.004 | 0.008 | 0.008 | 0.008 | 0.008 | – | – | – | CC(C)(C)c1ccc(CNC2CCCCC2NCc2ccc(C(C)(C)C)cc2)cc1.Cl (stereo not given) | Non-toxic | –
14 | – | – | – | – | 0.004 | 0.0005 | 0.008 | 0.008 | 0.008 | 0.016 | – | – | – | inactive | CC(C)c1ccc(CNC2CCCCC2NCc2ccc(C(C)C)cc2)cc1.Cl (stereo not given) | – | 81.8
15 | inactive | inactive | inactive | inactive | – | – | – | – | – | – | – | – | – | – | Clc1ccccc1CNC1CCCCC1NCc1ccccc1Cl (stereo not given) | – | 9.83
16 | – | – | – | – | 0.032 | 0.008 | 0.016 | 0.032 | 0.125 | 0.065 | 0.065 | – | – | – | Cl.FC(F)(F)c1ccc(CN[C@H]2CCCC[C@@H]2NCc2ccc(C(F)(F)F)cc2)cc1 | Non-toxic | –
17 | – | – | – | – | 0.001 (≈ 0.00225 µM) | – | 0.001 (≈ 0.00225 µM) | 0.002 (≈ 0.0045 µM) | – | – | – | – | – | – | CN(C)[C@@H]1C(O)=C(C(N)=O)C(=O)[C@@]2(O)C(O)=C3C(=O)c4c(O)cccc4[C@@](C)(O)[C@H]3C[C@@H]12 [TETRACYCLINE] | – | –

Row | MIC (Escherichia coli) | MIC (Pseudomonas aeruginosa) | MIC (Staphylococcus aureus) | MIC [1] | MIC (Escherichia coli; [3]) [µg/mL] | MIC (Pseudomonas aeruginosa; [4]) [µg/mL] | MIC (Staphylococcus aureus; [5]) [µg/mL] | MIC [1, 6] [µg/mL] | MIC (Candida albicans; MTCC 3017, 24 h) [µg/mL] | MIC (Nakaseomyces glabratus; MTCC 3019, 24 h) [µg/mL] | MIC (Geotrichum candidum; NCIM 980, 24 h) [µg/mL] | MIC (Candida albicans) | MIC (Nakaseomyces glabratus) | MIC (Geotrichum candidum) | SMILES | Activity [2] | hemolysis at 1024 ug/ml [2] [%]
18 | – | – | – | – | 0.008 | 0.008 | 0.002 | 0.016 | 0.065 | 0.032 | 0.032 | – | – | – | Brc1ccc(CN[C@H]2CCCC[C@@H]2NCc2ccc(Br)cc2)cc1.Cl | Non-toxic | –
19 | inactive | – | inactive | inactive | – | 0.125 | – | – | – | – | 0.5 | inactive | inactive | – | Cl.O=[N+]([O-])c1ccc(CNC2CCCCC2NCc2ccc([N+](=O)[O-])cc2)cc1 (stereo not given) | Non-toxic | –
20 | inactive | inactive | inactive | inactive | – | – | – | – | – | – | – | – | – | – | Brc1ccccc1CNC1CCCCC1NCc1ccccc1Br.Cl (stereo not given) | Non-toxic | –
21 | – | – | inactive | – | 0.25 | 0.25 | – | 0.25 | – | – | 0.5 | inactive | inactive | – | Cl.Fc1cccc(CNC2CCCCC2NCc2cccc(F)c2)c1 (stereo not given) | Non-toxic | –
22 | – | – | – | – | 0.032 | 0.032 | 0.032 | 0.032 | – | – | – | – | – | – | Cl.Clc1ccc(CN[C@H]2CCCC[C@@H]2NCc2ccc(Cl)cc2)cc1 | – | 4.8
23 | inactive | inactive | inactive | inactive | – | – | – | – | – | – | – | – | – | – | c1ccc(CNC2CCCCC2NCc2ccccc2)cc1 (stereo not given) | – | –
24 | – | – | – | – | 0.25 | 0.032 | 0.065 | 0.065 | 0.5 | – | 0.5 | – | inactive | – | Cl.FC(F)(F)c1ccccc1CNC1CCCCC1NCc1ccccc1C(F)(F)F (stereo not given) | Non-toxic | –
25 | – | – | – | – | 0.032 | 0.008 | 0.032 | 0.032 | 0.125 | 0.125 | 0.065 | – | – | – | Cl.Clc1cccc(CNC2CCCCC2NCc2cccc(Cl)c2)c1 (stereo not given) | – | 9.68
26 | – | – | inactive | – | 0.032 | 0.065 | – | 0.032 | 0.125 | – | 0.032 | – | inactive | – | Cl.Clc1cccc(CN[C@H]2CCCC[C@@H]2NCc2cccc(Cl)c2)c1 (racemic) | – | –
27 | – | – | – | – | 0.032 | 0.008 | 0.008 | 0.032 | 0.125 | 0.125 | 0.065 | – | – | – | Cl.FC(F)(F)c1ccc(CNC2CCCCC2NCc2ccc(C(F)(F)F)cc2)cc1 (stereo not given) | Non-toxic | –
28 | inactive | inactive | inactive | inactive | – | – | – | – | – | – | – | – | – | – | COc1ccc(CNC2CCCCC2NCc2ccc(OC)cc2)cc1.Cl (stereo not given) | Non-toxic | –
29 | – | – | – | – | 0.032 | 0.008 | 0.016 | 0.065 | – | 0.125 | 0.125 | inactive | – | – | Cl.FC(F)(F)c1cccc(CN[C@H]2CCCC[C@@H]2NCc2cccc(C(F)(F)F)c2)c1 | – | 3.7
30 | – | – | – | – | 0.032 | 0.016 | 0.016 | 0.032 | – | – | – | – | – | – | Cl.Clc1ccc(CNC2CCCCC2NCc2ccc(Cl)cc2Cl)c(Cl)c1 (racemic) | – | –
31 | – | – | – | – | 0.008 | 0.004 | 0.008 | 0.008 | 0.032 | 0.032 | 0.032 | – | – | – | CCc1ccc(CNC2CCCCC2NCc2ccc(CC)cc2)cc1.Cl (stereo not given) | – | 38.3
32 | – | – | – | – | 0.065 | 0.25 | 0.008 | 0.065 | 0.125 | 0.25 | 0.065 | – | – | – | Brc1cccc(CNC2CCCCC2NCc2cccc(Br)c2)c1.Cl (stereo not given) | Non-toxic | –
33 | – | – | – | – | 0.25 | 0.125 | 0.125 | 0.25 | – | – | 0.25 | inactive | inactive | – | Cc1ccc(CNC2CCCCC2NCc2ccc(C)cc2)cc1.Cl (stereo not given) | – | 19.2

Row | SMILES | MIC (Escherichia coli) | MIC (Pseudomonas aeruginosa) | MIC (Staphylococcus aureus) | MIC [1] | MIC (Escherichia coli; [3]) [µg/mL] | MIC (Pseudomonas aeruginosa; [4]) [µg/mL] | MIC (Staphylococcus aureus; [5]) [µg/mL] | MIC [1, 6] [µg/mL] | MIC (Candida albicans; MTCC 3017, 24 h) [µg/mL] | MIC (Nakaseomyces glabratus; MTCC 3019, 24 h) [µg/mL] | MIC (Geotrichum candidum; NCIM 980, 24 h) [µg/mL] | MIC (Candida albicans) | MIC (Nakaseomyces glabratus) | MIC (Geotrichum candidum) | Activity [2] | hemolysis at 1024 ug/ml [2] [%]
34 | C[C@@H]1[C@H](O)[C@@H](C)/C=C/C=C/C=C/C=C/C=C/C=C/C=C/[C@H](O[C@@H]2O[C@H](C)[C@@H](O)[C@H](N)[C@@H]2O)C[C@@H]2O[C@](O)(C[C@@H](O)C[C@@H](O)[C@H](O)CC[C@@H](O)C[C@@H](O)CC(=O)O[C@H]1C)C[C@H](O)[C@H]2C(=O)O [AMPHOTERICIN B] | – | – | – | – | – | – | – | – | 0.3 (≈ 0.325 µM) | 50 (≈ 54.1 µM) | 6.25 (≈ 6.76 µM) | – | – | – | – | –
